One data set deals with T1, Recombinant CETP enzyme (Homo sapiens, UniProt P11597).
T1 construct: purchased Cardiovascular Targets
T1 sequence (P11597 18-493): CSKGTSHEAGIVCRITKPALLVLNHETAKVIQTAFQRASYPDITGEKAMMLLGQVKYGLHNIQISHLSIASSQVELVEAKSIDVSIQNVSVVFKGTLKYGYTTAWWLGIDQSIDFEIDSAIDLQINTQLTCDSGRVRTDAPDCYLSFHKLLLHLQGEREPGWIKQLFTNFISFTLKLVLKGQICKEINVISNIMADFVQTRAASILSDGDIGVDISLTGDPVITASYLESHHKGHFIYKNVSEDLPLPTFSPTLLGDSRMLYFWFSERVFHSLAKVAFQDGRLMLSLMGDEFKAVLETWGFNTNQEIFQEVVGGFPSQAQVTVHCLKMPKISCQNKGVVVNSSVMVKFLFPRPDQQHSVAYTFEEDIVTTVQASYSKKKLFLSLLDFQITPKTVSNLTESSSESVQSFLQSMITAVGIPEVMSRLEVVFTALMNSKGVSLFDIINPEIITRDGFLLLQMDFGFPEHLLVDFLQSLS
Description: In vitro fluorescence-based CETP inhibition assay (BODIPY-CE transfer from donor to acceptor microemulsions). In kind it is biochemical. The following applies: recombinant CETP 0.14 ng/μl; transfer of fluorescent cholesteryl ester monitored over 2 hours; vs DMSO controls. Summed up: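 Recombinant human CETP (0.14 ng/μl final) transfers BODIPY-CE from donor to acceptor microemulsions in buffer with 0.67 ug/mL human HDL. Fluorescence (ex 492/em 516 nm) monitored over 2 h and activity expressed as % of DMSO control. IC50 from activity curves; also run with 3% human serum albumin.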

SMILES strings stand for the structures.

The IC50 is the concentration that gives 50% inhibition. In general, melting point refers to the temperature, or range, at which the solid turns liquid.

Molecule `CCN(CC1CCCC1)c1nc2c(cc1CN(Cc1cc(C(F)(F)F)cc(C(F)(F)F)c1)c1nc(C(F)(F)F)co1)c(C)nn2C` [Example 22, (5-{[(3,5-bis-trifluoromethyl-benzyl)-(4-trifluoromethyl-oxazol-2-yl)-amino]-methyl}-1,3-dimethyl-1H-pyrazolo[3,4-b]-pyridin-6-yl)-cyclopentylmethyl-ethyl-amine] showed a melting point of 139 °C. For the same molecule, on Recombinant CETP enzyme, the IC50 is not above 1000 nM.

As to `CCN(c1nc2c(cc1CN(Cc1cc(C(F)(F)F)cc(C(F)(F)F)c1)c1nnn(C)n1)c(C)nn2C)C1CCCC1` [Example 8, (5-{[(3,5-bis-trifluoromethyl-benzyl)-(2-methyl-2H-tetrazole-5-yl)-amino]-methyl}-1,3-dimethyl-1H-pyrazolo[3,4-b]pyridin-6-yl)-cyclopentyl-ethyl-amine], the melting point fell in the range of 43 to 44 °C. Also, at Recombinant CETP enzyme, the IC50 was not above 1000 nM.

For the molecule `CCN(CC1CCCC1)c1nc2ccccc2cc1CN(Cc1cc(C(F)(F)F)cc(C(F)(F)F)c1)C(N)=O` [Example 59, 1-(3,5 bistrifluoromethyl-benzyl)-1-[(2-cyclopentylmethyl-ethyl-amino)-quinoline-3-ylmethyl]-urea], the melting point lay within 92 to 94 °C. Further, the IC50 at Recombinant CETP enzyme was not above 5000 nM.

Molecule `Cc1cccc2cc(CN(Cc3cc(C(F)(F)F)cc(C(F)(F)F)c3)c3nnn(C)n3)c(N(CC3CC3)CC3CC3)nc12` [Example 57] returned a melting point of 63 °C. Besides, the IC50 at Recombinant CETP enzyme was not above 1000 nM.

In the case of `Cc1nn(C)c2nc(N(CC3CCC3)CC3CC3)c(CN(Cc3cc(C(F)(F)F)cc(C(F)(F)F)c3)c3nnn(C)n3)cc12` [Example 5, (5-{[(3,5-bis-trifluoromethyl-benzyl)-(2-methyl-2H-tetrazole-5-yl)-amino]-methyl}-1,3-dimethyl-1H-pyrazolo[3,4-b]pyridin-6-yl)-cyclobutylmethyl-cyclopropylmethyl-amine], the melting point was in the range of 84 to 85 °C. Also, on Recombinant CETP enzyme, the IC50 was not above 1000 nM.

The molecule `CCN(CC(C)(C)C)c1nc2c(cc1CN(Cc1cc(C(F)(F)F)cc(C(F)(F)F)c1)c1nnn(C)n1)c(C)nn2C` [Example 6, (5-{[(3,5-bis-trifluoromethyl-benzyl)-(2-methyl-2H-tetrazole-5-yl)-amino]-methyl}-1,3-dimethyl-1H-pyrazolo[3,4-b]pyridin-6-yl)-(2,2-dimethyl-propyl)-ethyl-amine] had a melting point of 72 to 73 °C. Besides, the IC50 at Recombinant CETP enzyme is not above 1000 nM.
